# Data reported in patent publication US20260347403A1, “FUNGICIDAL COMPOUND” (priority 2022, published 2026).
# Like-named read-outs stand apart in the source and are kept apart here. Numbered stars: 1 amine (or outer) side, 2 acyl side, 3 side chain; on linkers, the order of the positions; unused ones are H or OH. Bridge positions count the residues as written; N and C are the ends. Square brackets hold non-standard residues; d marks the D form. Peptide text beside a SMILES is read from it. * marks the point of attachment. X1 = NC(=O)CC(O)C(N[*:1])C(=O)[*:2]; NMeF = CN[CH](Cc1ccccc1)C(=O)O; NMeN = CN[CH](CC(N)=O)C(=O)O; X2 = CCC(C)CCCCCCCCCCC(=O)*
# Tests used:
# Zymoseptoria tritici = experiment: Leaf painting assay in wheat seedling, Zymoseptoria tritici; format: in vivo, Zymoseptoria tritici on wheat (variety Riband); details: for % reduction of fungal growth: middle segment
# Method: Wheat seedlings of the variety Riband (for Zymoseptoria tritici trials) or variety Arina (for Puccinia recondite trials) were grown in a glasshouse until 14 d after seeding. At this time, such seedlings usually have a first leaf fully emerged (designated L1), a second leaf fully emerged (L2) and a third leaf (L3) that was partially emerged and in the process of development. Using a permanent pen, two dots were applied on the second leaf such as to generate three segments of roughly equal size: Segment A (at the base), segment B (middle part) and segment C (upper part of the leaf). A stock solution of the test compound was produced in DMSO at a concentration of 10′000 ppm. […] The diluted compound was applied to the middle segment of L2 using a conventional cotton stick; the cotton stick was soaked in the diluted compound and rubbed several times on the adaxial leaf surface between the two marks. 1 day later, the complete plant was inoculated with a fungal spore suspension using a paint brush and application of the spore suspension until before run-off.
# For infection with Zymoseptoria tritici: The test plants were inoculated by spraying a spore suspension on them 1 day after application (1.5Mio spores per ml in water supplemented with 0.01% Tween®20). After an incubation period of 4 days at 22 °C/21 °C. (day/night) and 95% rh, the inoculated test plants were kept at 22 °C/21 °C (day/night) and 70% rh in a greenhouse. Efficacy was assessed by visual evaluation directly when an appropriate level of disease appears on untreated check plants (usually >80% disease cover at 16-19 days after inoculation).
# The three segments of the leaf were evaluated individually.
# Botryotinia fuckeliana = experiment: Liquid culture, Botryotinia fuckeliana (Botrytis cinerea), Gray Mould, 3-4 days; format: cell-based
# Method: (§1) Mycelia fragments or conidia suspensions of a fungus, prepared either freshly from liquid cultures of the fungus or from cryogenic storage, were directly mixed into nutrient broth.
# (§2) A stock solution for compound of Formula I(a) and Formula I(b) was produced in DMSO (max. 10 mg/ml), which was diluted with water plus 0.025% Tween®20 to produce a 10× concentrated sample and 10 μl of this solution was pipetted into a microtiter plate (96-well format). The nutrient broth containing the fungal spores/mycelia fragments was then added to give an end concentration of the tested compound. The test plates were incubated in the dark at 24 °C and 96% rh. The inhibition of fungal growth was determined photometrically after 2-7 days, depending on the pathosystem, and percent antifungal activity relative to the untreated check was calculated.
# (§3) The effect of the test compound (Formula I(a), I(b) and Lipopeptin A) was tested against the following fungi under the conditions as outlined above and specifically herein below:
# Botryotinia fuckeliana (Botrytis cinerea)/Liquid Culture (Gray Mould)
# Conidia of the fungus from cryogenic storage were directly mixed into nutrient broth (Vogels broth). The inhibition of growth is determined photometrically 3-4 days after application.
# [1] = tested on: Puccinia recondita f. sp. tritici; experiment: Leaf disc/segment test on wheat, Puccinia recondita f. sp. tritici (Brown Rust), 7-9 days after application; format: in vivo
# Method: (§4) Leaf disks or leaf segments of various plant species were cut from plants grown in the greenhouse. The cut leaf disks, or segments were placed in multiwell plates (24-well format) onto water agar. The leaf disks were sprayed with a test solution before inoculation with the fungal spores. Compounds to be tested were prepared as DMSO solutions (max. 10 mg/ml) which were diluted to the appropriate concentration with water plus 0.025% Tween® 20 just before spraying. The inoculated leaf disks or segments were incubated under defined conditions (temperature, relative humidity, light, etc.) according to the respective test system. A single evaluation of disease level was carried out by visual evaluation 3-9 days days after inoculation, depending on the pathosystem as indicated below. Percent disease control relative to the untreated check leaf disks or segments was then calculated.
# Puccinia recondita f. Sp. Tritici/Wheat/Leaf Disc (Brown Rust)
# Wheat leaf segments cv. Kanzler were placed on agar in multiwell plates (24-well format) and sprayed with the formulated test compound diluted in water. The leaf disks were inoculated with a spore suspension of the fungus 1 day after application. The inoculated leaf segments were incubated at 19 °C and 75% rh under a light regime of 12 h light/12 h darkness in a climate cabinet and the activity of a compound was assessed as percent disease control compared to untreated when an appropriate level of disease damage appears in untreated check leaf segments (7-9 days after application).
# Glomerella lagenarium = experiment: Liquid culture, Glomerella lagenarium (Colletotrichum lagenarium), Anthracnose, 3-4 days; format: cell-based; details: Colletotrichum orbiculare, read-out: % reduction fungal growth
# Method: as §1, §2, §3
# Glomerella lagenarium (Colletotrichum lagenarium)/Liquid Culture (Anthracnose)
# Conidia of the fungus from cryogenic storage were directly mixed into nutrient broth (PDB potato dextrose broth). The inhibition of growth was measured photometrically 3-4 days after application.
# several fungal species = experiment: Leaf disc or leaf segment tests, summary over the fungi tested; format: in vivo; details: up to; Tables 4 and 5
# Method: as §4
# Pyrenophora teres = experiment: Leaf disc preventative test on barley, Pyrenophora teres (Net Blotch), 5-7 days after application; format: in vivo; details: Table 5
# Method: as §4
# Pyrenophora teres/Barley/Leaf Disc Preventative (Net Blotch)
# Barley leaf segments cv. Hasso were placed on agar in a multiwell plate (24-well format) and sprayed with the formulated test compound diluted in water. The leaf segments were inoculated with a spore suspension of the fungus 2 days after application. The inoculated leaf segments were incubated at 20 °C and 65% rh under a light regime of 12 h light/12 h darkness in a climate cabinet and the activity of a compound was assessed as disease control compared to untreated when an appropriate level of disease damage appears in untreated check leaf segments (5-7 days after application).
compound,measurement,setting,value
CCC(C)CCCCCCCCCCC(=O)NC1C(=O)NC(CC(=O)O)C(=O)NC(C(O)CC(N)=O)C(=O)NC(CO)C(=O)N(C)C(CC(N)=O)C(=O)N(C)C(Cc2ccccc2)C(=O)NC(CCC(N)=O)C(=O)NC(CCC(=O)O)C(=O)OC1C (stereo not shown) [Formula I(b)] (X2-TD[X1]S[NMeN][NMeF]QE; ester 1-C; configuration not given here),% reduction of fungal growth,Zymoseptoria tritici; 20 ppm,0%
same,% reduction of fungal growth,Zymoseptoria tritici; 200 ppm,31%
same,control on the treated area (middle segment),"Zymoseptoria tritici; up to, Table 6, Zymoseptoria tritici",up to 70%
same,% reduction fungal growth,"Botryotinia fuckeliana; Table 2, 0.41 ppm",0%
same,% reduction fungal growth,"Botryotinia fuckeliana; Table 2, 1.2 ppm",0%
same,% reduction fungal growth,"Botryotinia fuckeliana; Table 2, 3.7 ppm",0%
same,% reduction fungal growth,"Botryotinia fuckeliana; Table 2, 11 ppm",0%
same,% reduction fungal growth,"Botryotinia fuckeliana; Table 2, 33 ppm",0%
same,% reduction fungal growth,"Botryotinia fuckeliana; Table 2, 100 ppm",50%
same,% reduction fungal growth,"Botryotinia fuckeliana; Table 3, 11 ppm",50%
same,% reduction fungal growth,"Botryotinia fuckeliana; Table 3, 33 ppm",50%
same,% reduction fungal growth,"Botryotinia fuckeliana; Table 3, 100 ppm",70%
same,% reduction of fungal growth,"[1]; Table 4, 0.82 ppm",0%
same,% reduction of fungal growth,"[1]; Table 4, 2.5 ppm",0%
same,% reduction of fungal growth,"[1]; Table 4, 7.4 ppm",0%
same,% reduction of fungal growth,"[1]; Table 4, 22 ppm",0%
same,% reduction of fungal growth,"[1]; Table 4, 67 ppm",45%
same,% reduction of fungal growth,"[1]; Table 4, 200 ppm",70%
same,% reduction of fungal growth,"[1]; Table 5, 0.82 ppm",0%
same,% reduction of fungal growth,"[1]; Table 5, 2.5 ppm",0%
same,% reduction of fungal growth,"[1]; Table 5, 7.4 ppm",0%
same,% reduction of fungal growth,"[1]; Table 5, 22 ppm",35%
same,% reduction of fungal growth,"[1]; Table 5, 67 ppm",70%
same,% reduction of fungal growth,"[1]; Table 5, 200 ppm",95%
same,inhibition of growth at 0.41 ppm,Glomerella lagenarium; Table 2,0%
same,inhibition of growth at 1.2 ppm,Glomerella lagenarium; Table 2,0%
same,inhibition of growth at 3.7 ppm,Glomerella lagenarium; Table 2,0%
same,inhibition of growth at 11 ppm,Glomerella lagenarium; Table 2,0%
same,inhibition of growth at 33 ppm,Glomerella lagenarium; Table 2,0%
same,inhibition of growth at 100 ppm,Glomerella lagenarium; Table 2,0%
same,inhibition of growth at 0.41 ppm,Glomerella lagenarium; Table 3,0%
same,inhibition of growth at 1.2 ppm,Glomerella lagenarium; Table 3,0%
same,inhibition of growth at 3.7 ppm,Glomerella lagenarium; Table 3,0%
same,inhibition of growth at 11 ppm,Glomerella lagenarium; Table 3,0%
same,inhibition of growth at 33 ppm,Glomerella lagenarium; Table 3,0%
same,inhibition of growth at 100 ppm,Glomerella lagenarium; Table 3,0%
same,reduction of fungal growth,several fungal species,up to 95%
same,% reduction of fungal growth,Pyrenophora teres; 0.82 ppm,0%
same,% reduction of fungal growth,Pyrenophora teres; 2.5 ppm,0%
same,% reduction of fungal growth,Pyrenophora teres; 7.4 ppm,0%
same,% reduction of fungal growth,Pyrenophora teres; 22 ppm,0%
same,% reduction of fungal growth,Pyrenophora teres; 67 ppm,90%
same,% reduction of fungal growth,Pyrenophora teres; 200 ppm,90%
